The results in this text go back to patent US10112941B2, “Tricyclic compounds as anticancer agents” (BRISTOL-MYERS SQUIBB COMPANY, priority 2013, dated 2018).

Like-named read-outs stand apart in the source and are kept apart here.

In this assay the target is BRD4 (Homo sapiens, UniProt O60885). The experiment in a line: Time Resolved Fluorescence Resonance Energy Transfer (TR-FRET) binding assay, BRD4. To be noted: one of the FRET assays described.

Consider `[2H]C([2H])([2H])c1onc(C)c1-c1cnc2c3ccc(C(C)(C)O)cc3n([C@H](c3ccc(F)cc3)C3CCOCC3)c2c1` [Example 284, 2-{5-[(S)-(4-Fluorophenyl)(oxan-4-yl)methyl]-3-[5-(^2H3)methyl-3-methyl-1,2-oxazol-4-yl]-5H-pyrido[3,2-b]indol-7-yl}propan-2-ol], for which, for the setting “FRET BRD4 IC50 (nM)”, the IC50 is less than 5 nM.

As for `[2H]C([2H])([2H])c1onc(C)c1-c1cnc2c3ccc(C(C)(C)O)cc3n([C@H](c3ccccc3F)C3CCOCC3)c2c1` [Example 285, 2-{5-[(S)-(2-Fluorophenyl)(oxan-4-yl)methyl]-3-[5-(^2H3)methyl-3-methyl-1,2-oxazol-4-yl]-5H-pyrido[3,2-b]indol-7-yl}propan-2-ol], where the note is “read-out: FRET BRD4 IC50”, the IC50 is less than 5 nM. The same measure, in the same setting: next, `COc1cnccc1C(C1CCOCC1)n1c2cc(C(C)(C)O)ccc2c2ncc(-c3c(C)nnn3C)cc21` (centres unmarked) [Example 291]: less than 5 nM.

`[2H]C([2H])([2H])c1nnn(C)c1-c1cnc2c3ccc(C(C)(C)O)cc3n(C(c3cc(C)on3)C3CCOCC3)c2c1` (centres unmarked) [Example 308, 2-{5-[(5-Methyl-1,2-oxazol-3-yl)(oxan-4-yl)methyl]-3-[4-(^2H3)methyl-1-methyl-1H-1,2,3-triazol-5-yl]-5H-pyrido[3,2-b]indol-7-yl}propan-2-ol]: the IC50 (read-out: FRET BRD4 IC50) was less than 5 nM. For `[2H]C([2H])([2H])c1nnn(C)c1-c1cnc2c3ccc(C(C)(C)O)cc3n(C(c3cc(C)on3)C3CCOCC3)c2c1` (centres unmarked) [Example 309, 2-{5-[(5-Methyl-1,2-oxazol-3-yl)(oxan-4-yl)methyl]-3-[4-(^2H3)methyl-1-methyl-1H-1,2,3-triazol-5-yl]-5H-pyrido[3,2-b]indol-7-yl}propan-2-ol], under “read-out: FRET BRD4 IC50”, the IC50 is less than 25 nM. With `[2H]c1c(C([2H])(C2CCOCC2)n2c3cc(C(C)(C)O)ccc3c3ncc(-c4c(C)noc4C([2H])([2H])[2H])cc32)noc1C([2H])([2H])[2H]` (centres unmarked) [Example 327], the IC50 (read-out: FRET BRD4 IC50) is less than 5 nM.

With `[2H]c1c(C([2H])(C2CCOCC2)n2c3cc(C(C)(C)O)ccc3c3ncc(-c4c(C)noc4C([2H])([2H])[2H])cc32)noc1C([2H])([2H])[2H]` (centres unmarked) [Example 328], the IC50 (read-out: FRET BRD4 IC50) is less than 25 nM. Consider `[2H]C([2H])([2H])c1nnn(C)c1-c1cnc2c3cc(F)c(C(C)(O)C4CC4)cc3n(C(c3cc(C)on3)C3CCOCC3)c2c1` (centres unmarked) [Example 329], for which the IC50 (read-out: FRET BRD4 IC50) was less than 25 nM. Same read-out and setting: the value for `[2H]C([2H])([2H])c1nnn(C)c1-c1cnc2c3ccc(S(C)(=O)=O)cc3n(C(c3cc(C)on3)C3CCOCC3)c2c1` (centres unmarked) [Example 330, 5-{7-Methanesulfonyl-5-[(5-methyl-1,2-oxazol-3-yl)(oxan-4-yl)methyl]-5H-pyrido[3,2-b]indol-3-yl}-4-(^2H3)methyl-1-methyl-1H-1,2,3-triazole] was less than 25 nM; that for `[2H]C([2H])([2H])c1nnn(C)c1-c1cnc2c3ccc(S(C)(=O)=O)cc3n(C(c3cc(C)on3)C3CCOCC3)c2c1` (centres unmarked) [Example 331, 5-{7-Methanesulfonyl-5-[(5-methyl-1,2-oxazol-3-yl)(oxan-4-yl)methyl]-5H-pyrido[3,2-b]indol-3-yl}-4-(^2H3)methyl-1-methyl-1H-1,2,3-triazole] was less than 5 nM. Same read-out and setting: the value for `Cc1nnn(C)c1-c1cnc2c3ccc(CS(C)(=O)=O)cc3n([C@H](c3ncccc3F)C3CCOCC3)c2c1` [Example 332] was less than 5 nM.

As to `Cc1nnn(C)c1-c1cnc2c3ccc(CS(C)(=O)=O)cc3n([C@@H](c3ncccc3F)C3CCOCC3)c2c1` [Example 333], the half-inhibitory concentration (IC50) (read-out: FRET BRD4 IC50) was less than 5 nM. On the same count and under the same terms, next, `Cc1nnn(C)c1-c1cnc2c3ccc(CS(C)(=O)=O)cc3n([C@@H](c3ccc(Cl)cn3)C3CCOCC3)c2c1` [Example 334]: less than 5 nM. On the same count and under the same terms, next, `Cc1nnn(C)c1-c1cnc2c3ccc(CS(C)(=O)=O)cc3n([C@H](c3cc(Cl)ccn3)C3CCOCC3)c2c1` [Example 335]: less than 5 nM; `COc1ccnc([C@H](C2CCOCC2)n2c3cc(CS(C)(=O)=O)ccc3c3ncc(-c4c(C)nnn4C)cc32)c1` [Example 336]: less than 5 nM. With `Cc1ccnc([C@H](C2CCOCC2)n2c3cc(CS(C)(=O)=O)ccc3c3ncc(-c4c(C)nnn4C)cc32)c1` [Example 337], under “read-out: FRET BRD4 IC50”, the IC50 is less than 5 nM. Regarding `Cc1ccc([C@H](C2CCOCC2)n2c3cc(CS(C)(=O)=O)ccc3c3ncc(-c4c(C)nnn4C)cc32)nc1` [Example 338], for the setting “read-out: FRET BRD4 IC50”, the IC50 was less than 5 nM.

As for `Cc1nnn(C)c1-c1cnc2c3ccc(CS(C)(=O)=O)cc3n([C@H](c3ncccc3Cl)C3CCOCC3)c2c1` [Example 339], the IC50 (read-out: FRET BRD4 IC50) is less than 5 nM.

Turning to `Cc1nnn(C)c1-c1cnc2c3ccc(CS(C)(=O)=O)cc3n([C@@H](c3ncccc3Cl)C3CCOCC3)c2c1` [Example 340], the IC50 (read-out: FRET BRD4 IC50) is less than 5 nM. The same measure, in the same setting: next, `[2H]C([2H])([2H])c1onc(C)c1-c1cnc2c3ccc(C(C)(C)O)cc3n(C([2H])(c3ccncc3F)C3CCOCC3)c2c1` (centres unmarked) [Example 343, 2-{5-[(3-Fluoropyridin-4-yl)(oxan-4-yl)(^2H)methyl]-3-[5-(^2H3)methyl-3-methyl-1,2-oxazol-4-yl]-5H-pyrido[3,2-b]indol-7-yl}propan-2-ol]: less than 5 nM; `[2H]C([2H])([2H])c1onc(C)c1-c1cnc2c3ccc(C(C)(C)O)cc3n(C([2H])(c3ccncc3F)C3CCOCC3)c2c1` (centres unmarked) [Example 344, 2-{5-[(3-Fluoropyridin-4-yl)(oxan-4-yl)(^2H)methyl]-3-[5-(^2H3)methyl-3-methyl-1,2-oxazol-4-yl]-5H-pyrido[3,2-b]indol-7-yl}propan-2-ol]: less than 5 nM; `[2H]C([2H])([2H])c1nnn(C)c1-c1cnc2c3c(OC)cc(C(C)(C)O)cc3n(C(c3ccncc3F)C3CCOCC3)c2c1` (centres unmarked) [Example 347, 2-{5-[(3-Fluoropyridin-4-yl)(oxan-4-yl)methyl]-9-methoxy-3-[4-(^2H3)methyl-1-methyl-1H-1,2,3-triazol-5-yl]-5H-pyrido[3,2-b]indol-7-yl}propan-2-ol]: less than 5 nM. Consider `[2H]C([2H])([2H])c1nnn(C)c1-c1cnc2c3c(OC)cc(C(C)(C)O)cc3n(C(c3ccncc3F)C3CCOCC3)c2c1` (centres unmarked) [Example 348, 2-{5-[(3-Fluoropyridin-4-yl)(oxan-4-yl)methyl]-9-methoxy-3-[4-(^2H3)methyl-1-methyl-1H-1,2,3-triazol-5-yl]-5H-pyrido[3,2-b]indol-7-yl}propan-2-ol], for which the 50% inhibitory concentration (IC50) (read-out: FRET BRD4 IC50) was less than 5 nM. Same read-out and setting: next, `Cc1nnn(C)c1-c1cnc2c3ccc(C(C)(C)F)cc3n([C@H](c3ccccc3)C3CCOCC3)c2c1` [Example 351, 5-[7-(2-Fluoropropan-2-yl)-5-[(S)-oxan-4-yl(phenyl)methyl]-5H-pyrido[3,2-b]indol-3-yl]-1,4-dimethyl-1H-1,2,3-triazole]: less than 5 nM; `Cc1nnn(C)c1-c1cnc2c3ccc(C(C)(C)F)c(F)c3n([C@H](c3ccccc3)C3CCOCC3)c2c1` [Example 352, 5-[6-Fluoro-7-(2-fluoropropan-2-yl)-5-[(S)-oxan-4-yl(phenyl)methyl]-5H-pyrido[3,2-b]indol-3-yl]-1,4-dimethyl-1H-1,2,3-triazole]: less than 25 nM.

With `COc1cc2c3ncc(-c4c(C)nnn4C)cc3n([C@H](c3ccc(F)cc3)C3CCOCC3)c2cc1C(C)(C)O` [Example 353, 2-[3-(Dimethyl-1H-1,2,3-triazol-5-yl)-5-[(S)-(4-fluorophenyl)(oxan-4-yl)methyl]-8-methoxy-5H-pyrido[3,2-b]indol-7-yl]propan-2-ol], under “read-out: FRET BRD4 IC50”, the IC50 was less than 5 nM.

One may read the IC50 as the midpoint of a concentration-inhibition curve.
